Here are results for two compounds from patent publication US20140128472A1, “TREATMENT AND PREVENTION OF DISEASES RELATED TO OXIDATIVE STRESS” (UNIVERSITY OF PÉCS, priority 2011, published 2014).

The subject of assay [1] is 3T3-L1 adipocytes. Put plainly: Erythropoietin-dependent uptake of deoxy-D-glucose into 3T3-L1 adipocytes. Type of assay: cell-based, mouse. To be noted: 5 mM glucose; various concentrations of EPO. As for the experimental part:
Primary cultures of mouse embryo fibroblasts (3T3-L1) were purchased from ATCC (Manassas, US). Early passages of 3T3-L1 fibroblasts were cultured in Dulbecco's modified Eagle medium ((DMEM, Invitrogen, CAT number: 41966-029; Sigma Aldrich CAT number: D6046) supplemented with 10% Fetal Bovine Serum (Gibco, CAT number: 16170-078), 100 U/ml penicillin and 0.1 mg/ml streptomycin (Gibco, CAT number: 15070-063) and 398 nM p-, m-, or o-Tyr. DMEM contained 25 or 5 mM glucose (depending on the experiment), L-glutamine, and pyruvate. Cells were grown in a humidified incubator at 37° C. and 5% CO2. Differentiation medium consisted of DMEM supplemented with 10% Fetal Bovine Serum (FBS, Gibco, Csertex, Budapest, Hungary, CAT number: 10106-169) (FBS), to which a cocktail was added containing […] isobuthylmethylxanthine (Sigma Aldrich, CAT number: I 5879), 0.17 nM insulin (Sigma Aldrich, CAT number: I 9278) and 250 nM dexamethasone (Sigma Aldrich, CAT number: 861871). […]
[…] The sediment was dissolved in 70 μl of lysis-buffer and glucose uptake was assessed by scintillation counting measuring 30 μl of the sample with a Beckman LS 5000 TD counter in counts per minute (CPM) for five minutes each, using an average activity as the outcome. Samples were frozen overnight at −70° C. and protein concentration was measured using a Hitachi spectrophotometer. […]

For assay [2], the system named is thoracic and abdominal aorta, renal and femoral arteries. The assay is described as follows: Insulin-induced relaxation of isolated arterial segments after oral tyrosine isomer supplementation of rats. Type of assay: in vivo, Sprague-Dawley rats. As to conditions: for Insulin-induced relaxation, abdominal aorta, femoral (and renal) arteries / Insulin-induced relaxation, thoracic aorta: 1.76 mg/die per os; for Insulin-induced relaxation, abdominal aorta, femoral (and renal) arteries: compared to control; for Insulin-induced relaxation, thoracic aorta: compared to control/other groups; for Chronic effects on insulin-induced vasorelaxation after washout: 8th week, 4 weeks washout, all segments. As for the experimental part:
The experiments were carried out with the permission of the Hungarian Local Animal Experiment Committee. Shortly after weaning male CFY rats (a strain of the Sprague-Dawley rat) were placed in individual cages and held on regular diet. After two hours of fasting animals (4-5 week-old, 80-140 g) were loaded with 1.76 mg/die para-, meta- or ortho-tyrosine (p-, m-, o-tyr; Sigma-Aldrich, Inc., St. Louis, Mo. 63178, USA) dissolved in saline or vehicle (saline only) by gavage (per os) six days of the week. After one month treatment, animals were either anaesthetized with ether and were decapitated with a guillotine or p-, m-, o-tyr and vehicle supplementation was discontinued (“washout” period) and they were sacrificed […] (FIG. 8.A). The descending thoracic and abdominal aorta, renal and femoral arteries were removed and cleaned from connective tissue (FIG. 19). Sections were immediately hydrolyzed for HPLC analysis or were used for vascular reactivity studies.
In further tyrosine isomer incorporation studies when effects of chronic oral p-Tyr and o-Tyr supplementation of rats on the o-Tyr level and insulin-induced relaxation of isolated arterial segments were studied, 18 Male Sprague-Dawley rats (5-6 week-old) were used. Rats were orally supplied with either 1.76 mg/die of p-Tyr or o-Tyr or vehicle during six days per week for four weeks. […] At the end of four-week treatment, HPLC and vasomotor studies were performed. In another group of rats, p-Tyr/o-Tyr supplementation was discontinued for four weeks (“washout” period), after which they were sacrificed for HPLC and vasomotor studies.
The modified method of Fésüs et al. (Fésüs2007) was used. The distal parts of the vessels were dissected into 2 mm long segments in ice-cold Krebs buffer and rings were mounted on two stainless steel wires (40 μm in diameter) in a Danish Multimyograph Model 610M (DMT-USA Inc., Atlanta, Ga., USA). Vessels were bathed in Krebs buffer (containing 119 mM NaCl, 4.7 mM KCl, 1.2 mM KH2PO4, 25 mM NaHCO3, 1.2 mM Mg2SO4, 11.1 mM glucose, 1.6 mM CaCl2*2H2O, pH 7.4) and gassed with 5% CO2 and 95% O2 at 37° C. The resting tension/internal circumference relationship for each vessel was determined and then the internal circumference was set to 0.9×L100, where L100 is the internal circumference the vessel would have had in vivo when relaxed under a transmural pressure of 100 mmHg After this normalization procedure vessels were allowed to stabilize for 30 min, and then isometric tension was continuously recorded. Rings were preconstricted with 100 nM epinephrine. After reaching a stabile contraction plateau, relaxant responses to increasing doses of insulin were assessed. The rate of relaxation was expressed as percentage of the contraction evoked by epinephrine (100%). Para-, meta-, ortho-tyrosine or vehicle were added to the vessel chamber 10 minutes before the addition of epinephrine and 30 minutes before the addition of insulin.

In assay [3] the test system is 3T3-L1 adipocytes. Put plainly: Insulin-dependent uptake of deoxy-D-glucose 2-[1 2-3H(N)] into 3T3-L1 adipocytes. Type of assay: cell-based, mouse. As for the experimental part:
Primary cultures of mouse embryo fibroblasts (3T3-L1) were purchased from ATCC (Manassas, US). Early passages of 3T3-L1 fibroblasts were cultured in Dulbecco's modified Eagle medium ((DMEM, Invitrogen, CAT number: 41966-029; Sigma Aldrich CAT number: D6046) supplemented with 10% Fetal Bovine Serum (Gibco, CAT number: 16170-078), 100 U/ml penicillin and 0.1 mg/ml streptomycin (Gibco, CAT number: 15070-063) and 398 nM p-, m-, or o-Tyr. DMEM contained 25 or 5 mM glucose (depending on the experiment), L-glutamine, and pyruvate. Cells were grown in a humidified incubator at 37° C. and 5% CO2. Differentiation medium consisted of DMEM supplemented with 10% Fetal Bovine Serum (FBS, Gibco, Csertex, Budapest, Hungary, CAT number: 10106-169) (FBS), to which a cocktail was added containing […] isobuthylmethylxanthine (Sigma Aldrich, CAT number: I 5879), 0.17 nM insulin (Sigma Aldrich, CAT number: I 9278) and 250 nM dexamethasone (Sigma Aldrich, CAT number: 861871). From Day 4 onward, cells were maintained in DMEM/10% FBS containing […] insulin with a media change every other day until experimental treatments were initiated. For all treatments, cells were incubated overnight in serum-deprived medium after 90% of the cell population reached the adipocyte phenotype.
Cells were incubated in glucose free DMEM (Gibco, Csertex, Hungary) for 30 minutes, then treated with 2, 20, 200 or 400 nmol/l insulin for 100 minutes. Simultaneously 1 μCi/ml deoxy-D-glucose 2-[1 2-3H(N)] (3.7×104 Bq/ml) (Izotóp Intézet, Hungary) was added to the plates for 100 minutes Cells were scraped into the medium and centrifuged for 5 minutes at 1000 rpm. The sediment was dissolved in 70 μl of lysis-buffer and glucose uptake was assessed by scintillation counting measuring 30 μl of the sample with a Beckman LS 5000 TD counter in counts per minute (CPM) for five minutes each, using an average activity as the outcome. Samples were frozen overnight at −70° C. and protein concentration was measured using a Hitachi spectrophotometer. Results were normalized for protein content (Kaddai2009).

Assay [4] deals with Akt (PKB). Put plainly: Erythropoietin-dependent phosphorylation of Akt (PKB) in 3T3-L1 adipocytes (Western blot). To be noted: 25 mM glucose; various concentrations of erythropoietin. The format is cell-based, mouse.
The test system of assay [5] is thoracic and abdominal aorta, renal and femoral arteries. Put plainly: Insulin-induced relaxation of isolated arterial segments after oral tyrosine isomer supplementation of rats. On the set-up: species or system Sprague-Dawley rats. To be noted: proposed experiment: sustained in vivo supplementation with o-Tyr and p-Tyr together.
A short description of assay [6]: Example p-Tyr treatment regimen in a patient (hsCRP, serum insulin, plasma glucose). The format is in vivo, human. As for the experimental part:
As a further example, a patient attends medical control with a complaint of high blood pressure and increased stress at regular daily work in the last month. In this situation they relate an increased intake of coffein and sugar. Their high sensitivity C-reactive protein (hsCRP) level is measured as well as their serum insulin, and plasma glucose level.

Setting [7] is: cells grown 11 days on medium with the tyrosine isomer + 5 mM glucose, insulin 2, 20, 200, 400 nM.

Each structure is given as a SMILES string. “Also recorded” adds a separate entry of the source.

Take `N[C@@H](Cc1ccccc1O)C(=O)O` [o-Tyr, Ortho-L-tyrosine]: the “EPO-induced glucose uptake compared to the para-Tyr control” value in assay [1] is “inhibited”. Besides, in assay [2] (4th week), the “Insulin-induced relaxation, abdominal aorta, femoral (and renal) arteries” value is “significantly diminished response to insulin” and the “Insulin-induced relaxation, thoracic aorta” value is given as “no significant difference; also recorded: did not observe any significant further decline of response to insulin”. Also, in assay [2] (4th week, thoracic and abdominal aorta, femoral artery), the “Insulin-induced relaxation, all three isolated segments compared to the p-Tyr-treated group” value was “markedly attenuated insulin-induced relaxations”. The “Chronic effects on insulin-induced vasorelaxation after washout” value in assay [2] is reported as “completely abolished”. The “Insulin-induced glucose uptake at equimolar concentrations with p-Tyr” value in assay [3] (72-72 mg/l m-Tyr or o-Tyr and p-Tyr, insulin 400 nM) was “fully inhibit insulin-induced glucose uptake; also recorded: insulin had no effect on glucose uptake at all”. Also, the “Insulin-dependent deoxy-D-glucose uptake” value in assay [3] (setting [7]) is “no insulin effect could be verified”. In assay [3] (cells grown on m-Tyr- or o-Tyr-containing medium (72 mg/l) for different time periods, no insulin), the Baseline glucose uptake result was “did not show a marked change”. In assay [3] (m-Tyr or o-Tyr 72 mg/l for different time periods, insulin 400 nM, time-dependent manner), the “Insulin-induced glucose uptake, time dependence” value is listed as “blocked”. The “Ability to inhibit insulin-induced glucose uptake, dependence on concentration” value in assay [3] (m-Tyr or o-Tyr 2.25-72 mg/l with p-Tyr 72 mg/l, insulin 400 nM) is “concentration-dependent”. In addition, in assay [4], the “EPO-dependent Akt phosphorylation” value is recorded as “inhibited the normal increase in the Akt phosphorylation”.
With `N[C@@H](Cc1ccc(O)cc1)C(=O)O` [p-Tyr, Para-L-tyrosine], the “Insulin-induced relaxation, abdominal aorta, femoral (and renal) arteries” value in assay [2] (4th week) is “could not detect significant difference”. Besides, in assay [2] (4th week), the “Insulin-induced relaxation, thoracic aorta” value is on record as “increased insulin-induced relaxations only in the thoracic aorta; also recorded: increased relaxation in response to insulin; also recorded: higher vasorelaxation response to insulin; also recorded: greater vasorelaxation”. Moreover, the “Chronic effects on insulin-induced vasorelaxation after washout” value in assay [2] is “completely abolished”. The “Insulin-dependent deoxy-D-glucose uptake” value in assay [3] (setting [7]) is “increasing concentrations of insulin lead to an increase in deoxy-D-glucose uptake”; in assay [3] (cells grown 11 days on p-Tyr + high glucose (25 mM)), “insulin failed to increase glucose uptake”. For the same compound, the “Increase in glucose uptake by insulin” value in assay [3] (cells grown on p-Tyr and normal glucose, insulin 400 nM) is reported as “approx. 2 fold”. Further, in assay [3] (read from FIG. 3, insulin 400 nM), the “Excess concentration of p-Tyr over m-Tyr or o-Tyr in the media needed to compete” value was 8-32 fold. Moreover, in assay [5], the “Diminished response to insulin in isolated arterial segments” value is given as “reversed”. For the same compound, the “hsCRP, serum insulin and plasma glucose level” value in assay [6] (p-Tyr 3 g daily (three times 1 g), after a month) was “somewhat diminished”; in assay [6] (p-Tyr therapy continued, after a further month) it was “returned to the medium normal range”.
